Measurements from US6355799B1, “Substituted benzene compounds, process for their preparation, and herbicidal and defoliant compositions containing them” (ISK Americas Incorporated, priority 1997, dated 2002).

Experiments:
Assay type in all cases: in vivo
[1] = system: redroot pigweed (Amaranthus retroflexus, AMARE); assay: Pre-emerge test, greenhouse herbicide activity screening; conditions: phytotoxicity rating 0-100, 14 days after application
In short: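 Rating: 0–100 visual injury, 14 DAA. Application: acetone, 187 l/ha, 15–1000 g ai/ha, flat-fan track sprayer with nozzle 40–45 cm above soil or canopy. Post-emerge runs used 0.25% v/v surfactant on 2–3 leaf plants.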

[2] = system: johnsongrass (Sorghum halepense, SORHA); assay: as above; conditions: phytotoxicity rating 0-100, 14 days after application
In short: (§1)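 Visual ratings on a 0-100 scale (0 no damage, 100 all plants dead) were taken at 14 days after treatment. Rates of 15-1000 g ai/ha in acetone, 187 l/ha, were sprayed onto soil one day after planting (pre-emerge) or onto 2-3 leaf plants with 0.25% v/v surfactant (post-emerge).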

[3] = system: barnyardgrass (Echinochloa crus-galli, ECHCG); assay: as above; conditions: phytotoxicity rating 0-100, 14 days after application
In short: as §1

[4] = system: common ragweed (Ambrosia artemisizfolia L., AMBEL); assay: as above; conditions: phytotoxicity rating 0-100, 14 days after application
In short: as §1

[5] = system: green foxtail (Setaria viridis, SETVI); assay: as above; conditions: phytotoxicity rating 0-100, 14 days after application
In short: as §1

[6] = system: large crabgrass (Digitaria sanguinalis, DIGSA); assay: as above; conditions: phytotoxicity rating 0-100, 14 days after application
In short: as §1

[7] = system: lambsquarters (Chenopodium album, CHEAL); assay: as above; conditions: phytotoxicity rating 0-100, 14 days after application
In short: as §1

[8] = system: ivyleaf morningglory (Ipomoea hederacea, IPOHE); assay: as above; conditions: phytotoxicity rating 0-100, 14 days after application
In short: as §1

[9] = system: velvetleaf (Abutilon theophrasti, ABUTH); assay: as above; conditions: phytotoxicity rating 0-100, 14 days after application
In short: as §1

[10] = system: sicklepod (Cassia obtusifolia, CASOB); assay: as above; conditions: phytotoxicity rating 0-100, 14 days after application
In short: as §1

[11] = system: johnsongrass (Sorghum halepense, SORHA); assay: Post-emerge test, greenhouse herbicide activity screening; conditions: post-emerge, 14 days after application, rating scale 0-100
In short: (§2)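 Compounds in acetone were track-sprayed at 187 l/ha, 15–1000 g ai/ha, onto sandy loam pots. Pre-emerge seeds were sown one day before spraying, with surface watering afterwards. Post-emerge plants were at the 2–3 leaf stage and sprayed with 0.25% v/v non-ionic surfactant. Injury was rated 0–100 at 14 days.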

[12] = system: barnyardgrass (Echinochloa crus-galli, ECHCG); assay: as above; conditions: post-emerge, 14 days after application, rating scale 0-100
In short: as §2

[13] = system: redroot pigweed (Amaranthus retroflexus, AMARE); assay: as above; conditions: post-emerge, 14 days after application
In short: as §2

[14] = system: common ragweed (Ambrosia artemisizfolia L., AMBEL); assay: as above; conditions: post-emerge, 14 days after application, rating scale 0-100
In short: as §2

[15] = system: green foxtail (Setaria viridis, SETVI); assay: as above; conditions: post-emerge, 14 days after application, rating scale 0-100
In short: as §2

[16] = system: large crabgrass (Digitaria sanguinalis, DIGSA); assay: as above; conditions: post-emerge, 14 days after application, rating scale 0-100
In short: as §2

[17] = system: lambsquarters (Chenopodium album, CHEAL); assay: as above; conditions: post-emerge, 14 days after application, rating scale 0-100
In short: as §2

[18] = system: ivyleaf morningglory (Ipomoea hederacea, IPOHE); assay: as above; conditions: post-emerge, 14 days after application, rating scale 0-100
In short: as §2

[19] = system: velvetleaf (Abutilon theophrasti, ABUTH); assay: as above; conditions: post-emerge, 14 days after application, rating scale 0-100
In short: as §2

[20] = system: sicklepod (Cassia obtusifolia, CASOB); assay: as above; conditions: post-emerge, 14 days after application, rating scale 0-100
In short: as §2

[21] = system: upland rice (Oryza sp., var. Tebonnet, RICE); assay: Pre-emerge test, crop safety; conditions: crop damage rating 0-100, 14 days after application
In short: (§3)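 Applied at 15–1000 g ai/ha from acetone in 187 l/ha spray volume. Post-emergence applications included 0.25% v/v non-ionic surfactant and reached plants sown 8–21 days before. Pre-emergence applications were incorporated by surface watering. Efficacy or crop damage was rated on a 0–100 scale after 14 days.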

[22] = system: field corn (Zea mays L., var. Dekalb 535, CORN); assay: Pre-emerge test, crop safety; conditions: crop damage rating 0-100, 14 days after application
In short: as §3

[23] = system: upland rice (Oryza sp., var. Tebonnet, RICE); assay: Post-emerge test, crop safety; conditions: post-emerge, 14 days after application, rating scale 0-100
In short: as §1

[24] = system: field corn (Zea mays L., var. Dekalb 535, CORN); assay: Post-emerge test, crop safety; conditions: post-emerge, 14 days after application, rating scale 0-100
In short: as §1

Cn1c(C(F)(F)F)cc(=O)n(-c2c(F)cc(Cl)c(O)c2NC(=O)c2ccc3ccccc3c2)c1=O [Compound 2-194, 2-(2,4-chloro-6-fluoro-3-hydroxy-2-naphthoylamidophenyl)-1-methyl-6-trifluoromethyl-2,4(1H, 3H)-pyrimidinedione]
75: Pre-emerge Herbicidal Activity AMARE ([1]; 63 g ai/ha)
40: Pre-emerge Herbicidal Activity CHEAL ([7]; 63 g ai/ha) | phytotoxicity rating RICE (crop damage) ([23]; 250 g ai/ha)
85: Pre-emerge Herbicidal Activity CHEAL ([7]; 250 g ai/ha)
100: Pre-emerge Herbicidal Activity AMARE ([1]; 250 g ai/ha) | Pre-emerge Herbicidal Activity ABUTH ([9]; 250 g ai/ha) | phytotoxicity rating CHEAL ([17]; 250 g ai/ha) | phytotoxicity rating ABUTH ([19]; 250 g ai/ha)
20: Pre-emerge Herbicidal Activity SETVI ([5]; 250 g ai/ha) | Pre-emerge Herbicidal Activity IPOHE ([8]; 250 g ai/ha) | phytotoxicity rating SETVI ([15]; 63 g ai/ha) | phytotoxicity rating SETVI ([15]; 250 g ai/ha) | phytotoxicity rating DIGSA ([16]; 250 g ai/ha)
30: phytotoxicity rating RICE (crop damage) ([23]; 63 g ai/ha)
70: phytotoxicity rating CASOB ([20]; 250 g ai/ha)
10: Pre-emerge Herbicidal Activity DIGSA ([6]; 250 g ai/ha) | Pre-emerge Herbicidal Activity CASOB ([10]; 250 g ai/ha) | phytotoxicity rating SORHA ([11]; 250 g ai/ha) | phytotoxicity rating ECHCG ([12]; 250 g ai/ha) | Pre-emerge Herbicidal Activity RICE ([21]; 250 g ai/ha)
50: phytotoxicity rating CASOB ([20]; 63 g ai/ha)
99: phytotoxicity rating AMARE ([13]; 63 g ai/ha, rating scale 0-100 (0 no damage, 100 complete death)) | phytotoxicity rating AMARE ([13]; 250 g ai/ha, rating scale 0-100) | phytotoxicity rating IPOHE ([18]; 250 g ai/ha)
95: phytotoxicity rating AMBEL ([14]; 63 g ai/ha) | phytotoxicity rating IPOHE ([18]; 63 g ai/ha) | phytotoxicity rating ABUTH ([19]; 63 g ai/ha)
90: Pre-emerge Herbicidal Activity ABUTH ([9]; 63 g ai/ha) | phytotoxicity rating AMBEL ([14]; 250 g ai/ha) | phytotoxicity rating CHEAL ([17]; 63 g ai/ha)
0: Pre-emerge Herbicidal Activity SORHA ([2]; 63 g ai/ha) | Pre-emerge Herbicidal Activity SORHA ([2]; 250 g ai/ha) | Pre-emerge Herbicidal Activity ECHCG ([3]; 63 g ai/ha) | Pre-emerge Herbicidal Activity ECHCG ([3]; 250 g ai/ha) | Pre-emerge Herbicidal Activity AMBEL ([4]; 63 g ai/ha) | Pre-emerge Herbicidal Activity AMBEL ([4]; 250 g ai/ha) | Pre-emerge Herbicidal Activity SETVI ([5]; 63 g ai/ha) | Pre-emerge Herbicidal Activity DIGSA ([6]; 63 g ai/ha) | Pre-emerge Herbicidal Activity IPOHE ([8]; 63 g ai/ha) | Pre-emerge Herbicidal Activity CASOB ([10]; 63 g ai/ha) | phytotoxicity rating SORHA ([11]; 63 g ai/ha) | phytotoxicity rating ECHCG ([12]; 63 g ai/ha) | phytotoxicity rating DIGSA ([16]; 63 g ai/ha) | Pre-emerge Herbicidal Activity RICE ([21]; 63 g ai/ha) | Pre-emerge Herbicidal Activity CORN ([22]; 63 g ai/ha) | Pre-emerge Herbicidal Activity CORN ([22]; 250 g ai/ha)
5: phytotoxicity rating CORN (crop damage) ([24]; 63 g ai/ha) | phytotoxicity rating CORN (crop damage) ([24]; 250 g ai/ha)
